Measurements as given in patent US4904585A, “Novel antibiotic NK84-0218 and process for the production of the same” (Nippon Kayaku Kabushiki Kaisha, priority 1984, dated 1990).
≈ marks a conversion by molar mass, not a printed value.

Key:
[1] = tested on: Proteus morganii IFO 3168; experiment: Antibacterial spectrum, agar plate dilution method; format: cell-based; settings: Morganella morganii, IFO3168, 0.5% peptone agar, read-out: Minimum inhibitory concentration
HeLa cell = experiment: Anti-HeLa cell activity; format: cell-based; settings: for Cells/plate: 72 hours after the addition
Method: *The number of cells 72 hours after the addition of NK840218.

[2] = tested on: Mycobacterium smegmatis ATCC 607; experiment: Antibacterial spectrum, agar plate dilution method; format: cell-based; settings: Mycolicibacterium smegmatis, ATCC607, 0.5% peptone agar, read-out: Minimum inhibitory concentration
Bacillus cereus IAM 1072 = experiment: Antibacterial spectrum, agar plate dilution method; format: cell-based; settings: IAM1072, 0.5% peptone agar, read-out: Minimum inhibitory concentration
[3] = tested on: Salmonella paratyphi 1015 (MS-1); experiment: Antibacterial spectrum, agar plate dilution method; format: cell-based; settings: Salmonella enterica, read-out: Minimum inhibitory concentration
[4] = tested on: herpes simplex virus-I (HSV-I); experiment: Antiviral activity, cytopathic effect of HSV-I on Vero cells; format: cell-based
Method: A medium containing a definite amount of NK84-0218 and herpes simplex virus-I (HSV-I) 5-10 TC ID50 are added onto a single layer of vero cells in a microplate having 96 wells and cultured in a 5% by volume carbon dioxide incubator at 37° C. for 96 to 120 hours. Then the antiviral activity of the test substance is determined by microscopically observing the cytopathic effect (CPE) of the HSV-I on the Vero cells. The inhibition is taken as effective when no CPE is observed in a well. For example, when CPE is observed in one well among ten at the same concentration, the inhibition ratio is 90%.

[5] = tested on: Bacillus megaterium ATCC 14945; experiment: Antibacterial spectrum, agar plate dilution method; format: cell-based; settings: Priestia megaterium, ATCC14945, 0.5% peptone agar, read-out: Minimum inhibitory concentration
Escherichia coli K-12 = experiment: Antibacterial spectrum, agar plate dilution method; format: cell-based; settings: K12, 0.5% peptone agar, read-out: Minimum inhibitory concentration
[6] = tested on: Proteus mirabilis IFO 3849; experiment: Antibacterial spectrum, agar plate dilution method; format: cell-based; settings: IFO3849, 0.5% peptone agar, read-out: Minimum inhibitory concentration
[7] = tested on: Enterobacter aerogenes ATCC 13048 (MS-1); experiment: Antibacterial spectrum, agar plate dilution method; format: cell-based; settings: Klebsiella aerogenes, ATCC13048, 0.5% peptone agar, read-out: Minimum inhibitory concentration
[8] = tested on: Micrococcus flavus ATCC 10240; experiment: Antibacterial spectrum, agar plate dilution method; format: cell-based; settings: ATCC10240, 0.5% peptone agar, read-out: Minimum inhibitory concentration
[9] = tested on: Proteus vulgaris IFO 3045; experiment: Antibacterial spectrum, agar plate dilution method; format: cell-based; settings: IFO3045, 0.5% peptone agar, read-out: Minimum inhibitory concentration
[10] = tested on: Micrococcus luteus ATCC 9341; experiment: Antibacterial spectrum, agar plate dilution method; format: cell-based; settings: ATCC9341, 0.5% peptone agar, read-out: Minimum inhibitory concentration
gram-negative bacteria = experiment: Antibacterial spectrum, summary in words; format: cell-based; settings: agar plate dilution method
[11] = tested on: Staphylococcus aureus EDA 209P; experiment: Antibacterial spectrum, agar plate dilution method; format: cell-based; settings: 0.5% peptone agar, read-out: Minimum inhibitory concentration
[12] = tested on: Salmonella typhi 901 (MS-1); experiment: Antibacterial spectrum, agar plate dilution method; format: cell-based; settings: Salmonella enterica, read-out: Minimum inhibitory concentration
Solubility in solvents = format: physicochemical
Description: In order to isolate the antibiotic of the present invention, the culturing broth is purified in a manner conventionally used in isolating a metabolite of a microorganism from its culturing broth. […] For example, the culturing broth is adjusted to a pH value of 3.5 to 6.5, preferably 4 to 4.5, adsorbed by powdery active carbon, washed with water and eluted with a 50% aqueous acetone and the active fraction thus obtained is concentrated and lyophilized to give a brown crude powder. Then this powder is dissolved in methanol and insoluble substances are removed. The soluble portion is dried, dissolved in water, adsorbed by an active carbon column, washed with water and subjected to acetone linear concentration gradient elution with water and 50% aqueous acetone. The obtained active fraction is concentrated and lyophilized. The pale brown powder containing NK84-0218 thus obtained is dissolved in a small amount of water and packed into an Avicel column. Then it is developed with an aqueous alcohol and eluted with increasing the water content stepwise. The active fractions thus obtained are combined, concentrated and lyophilized. Subsequently the obtained powder is dissolved in a small amount of water and packed into an SP Sephadex® C-25(Na^+) column previously equilibrated with 0.02M sodium chloride. The active fractions eluted with 0.02M sodium chloride are desalted on active carbon to give a colorless powder. The powder thus purified is treated with water or an aqueous alcohol to give NK84-0218 in the form of colorless needles. The titer during the cultivation is determined by plate cup assay with Bacillus subtilis PCI 219.

Acute toxicity on mice = format: in vivo
[13] = tested on: Serratia marcescens GM 6484; experiment: Antibacterial spectrum, agar plate dilution method; format: cell-based; settings: GM6484, 0.5% peptone agar, read-out: Minimum inhibitory concentration
[14] = tested on: Pseudomonas aernginosa IFO 3445; experiment: Antibacterial spectrum, agar plate dilution method; format: cell-based; settings: IFO3445, 0.5% peptone agar, read-out: Minimum inhibitory concentration
[15] = tested on: Bacillus subtilis ATCC 6633; experiment: Antibacterial spectrum, agar plate dilution method; format: cell-based; settings: ATCC6633, 0.5% peptone agar, read-out: Minimum inhibitory concentration
[16] = tested on: Bacillus licheniformis IFO 12107; experiment: Antibacterial spectrum, agar plate dilution method; format: cell-based; settings: IFO12107, 0.5% peptone agar, read-out: Minimum inhibitory concentration
[17] = tested on: Candida albicans NIH 3147; experiment: Antibacterial spectrum, agar plate dilution method; format: cell-based; settings: NIH3147, 0.5% peptone agar, read-out: Minimum inhibitory concentration
Escherichia coli NIHJ = experiment: Antibacterial spectrum, agar plate dilution method; format: cell-based; settings: 0.5% peptone agar, read-out: Minimum inhibitory concentration
[18] = tested on: Salmonella enteritidis G14 (MS-1); experiment: Antibacterial spectrum, agar plate dilution method; format: cell-based; settings: Salmonella enterica, 0.5% peptone agar, read-out: Minimum inhibitory concentration
[19] = tested on: Bacillus subtilis PCI 219; experiment: Antibacterial spectrum, agar plate dilution method; format: cell-based; settings: PCI219, 0.5% peptone agar, read-out: Minimum inhibitory concentration
[20] = tested on: Bacillus polymyxa IAM 1210; experiment: Antibacterial spectrum, agar plate dilution method; format: cell-based; settings: Paenibacillus polymyxa, IAM1210, 0.5% peptone agar, read-out: Minimum inhibitory concentration
gram-positive bacteria = experiment: Antibacterial spectrum, summary in words; format: cell-based; settings: S. aureus FDA 209P, Bacillus including B. subtilis PCI 219 and B. cereus IAM 1072, Micrococcus flavus ATCC 10240
[21] = tested on: Klebsiella pneumoniae PCI 602; experiment: Antibacterial spectrum, agar plate dilution method; format: cell-based; settings: PCI602, 0.5% peptone agar, read-out: Minimum inhibitory concentration

With `Nc1ncnc2c1ncn2C1OC(CO)C1CO` (centres unmarked) [NK84-0218] the MIC [1] was > 100 µg/mL, the Cells/plate (HeLa cell; 0.39 μg/ml) was 14.35 × 10^5 and the Cells/plate (HeLa cell; 1.56 μg/ml) was 14.64 × 10^5. For the same compound, the Cells/plate (HeLa cell; 6.25 μg/ml) was 13.91 × 10^5, the Cells/plate (HeLa cell; 25 μg/ml) was 13.47 × 10^5 and the Cells/plate (HeLa cell; 100 μg/ml) was 2.78 × 10^5. For the same compound, the inhibition at 0.39 µg/mL (HeLa cell; Homo sapiens, HeLa, 0.39 μg/ml, 72 hours, read-out: Inhibition ratio) was 3.58%, the inhibition at 1.56 µg/mL (HeLa cell; Homo sapiens, HeLa, 1.56 μg/ml, 72 hours, read-out: Inhibition ratio) was 1.26% and the inhibition at 6.25 µg/mL (HeLa cell; Homo sapiens, HeLa, 6.25 μg/ml, 72 hours, read-out: Inhibition ratio) was 6.94%. The inhibition at 25 µg/mL (HeLa cell; Homo sapiens, HeLa, 25 μg/ml, 72 hours, read-out: Inhibition ratio) was 10.2%, the inhibition at 100 µg/mL (HeLa cell; Homo sapiens, HeLa, 100 μg/ml, 72 hours, read-out: Inhibition ratio) was 93.4% and the IC50 (HeLa cell; Homo sapiens, HeLa cell, 72 hours) was ~47 µg/mL (≈ 187 µM). For the same compound, the MIC [2] was > 100 µg/mL, the MIC (Bacillus cereus IAM 1072) was < 0.1 µg/mL and the MIC [3] was > 100 µg/mL. For the same compound, the “antiviral activity (in words)” value [4] was “exhibits an antiviral activity”, the MIC [5] was 1.56 µg/mL (≈ 6.21 µM) and the MIC (Escherichia coli K-12) was > 100 µg/mL. For the same compound, the MIC [6] was > 100 µg/mL, the MIC [7] was > 100 µg/mL and the MIC [8] was 6.25 µg/mL (≈ 24.9 µM). The MIC [9] was > 100 µg/mL, the MIC [10] was 3.12 µg/mL (≈ 12.4 µM) and the “effect on gram-negative bacteria” value (gram-negative bacteria) was “no effect”. The MIC [11] was < 0.1 µg/mL, the MIC [12] was > 100 µg/mL and the Solubility (Solubility in solvents; in dimethyl sulfoxide) was “soluble”. For the same compound, the Solubility (Solubility in solvents; in ethanol) was “soluble”, the Solubility (Solubility in solvents; in methanol) was “soluble” and the Solubility (Solubility in solvents; in other organic solvents such as propanol, acetone, ethyl acetate, ether and benzene) was “hardly or not soluble”. The Solubility (Solubility in solvents; in water) was “soluble”, the “acute toxicity compared with various known nucleoside antibiotics” value (Acute toxicity on mice; i.v.) was “lower than those of various known nucleoside antibiotics” and the LD50 (Acute toxicity on mice; mouse, in vivo, iv) was ≥ 100 mg/kg. The MIC [13] was > 100 µg/mL, the MIC [14] was > 100 µg/mL and the MIC [15] was < 0.1 µg/mL. For the same compound, the MIC [16] was 6.25 µg/mL (≈ 24.9 µM), the MIC [17] was > 100 µg/mL and the MIC (Escherichia coli NIHJ) was > 100 µg/mL. The MIC [18] was > 100 µg/mL, the MIC [19] was < 0.1 µg/mL and the MIC [20] was < 0.1 µg/mL. For the same compound, the “inhibiting the growth of gram-positive bacteria” value (gram-positive bacteria) was “intense effects of inhibiting the growth” and the MIC [21] was > 100 µg/mL.
